Source: paper PMC7426938, “Induction of mitochondria-mediated apoptosis and suppression of tumor growth in zebrafish xenograft model by cyclic dipeptides identified from Exiguobacterium acetylicum” (Scientific Reports, 2020)

Legend:
[1] = tested on: Cytc (Cytochrome-c) mRNA in HT-29 cells; assay: sqRT-PCR gene expression, Cytc; format: cell-based, human; conditions: 200 μM, 24 h, vs untreated cells
Method: Total RNA was isolated from HT-29 cells using the TRIzol reagent (TaKara, Japan) following the manufacturer’s instruction. The quantity and quality of each RNA sample were analyzed with a NanoDrop-1000 (Thermo Fisher Scientific, USA), followed by conversion to cDNA using RevertAid cDNA synthesis kit (Thermo Fisher Scientific, CA, USA) using 1 μg of mRNA to synthesize cDNA. Semi-quantitative reverse transcriptase-polymerase chain (sqRT-PCR) reaction was carried out in a Veriti Thermal Cycler (Applied Biosystems, CA, USA) using 2X Taq DNA polymerase Master Mix RED (Ampliqon, Denmark, Germany) as we previously described method. All sqRT-PCRs were run for at least three times. GAPDH served as a housekeeping gene to normalize the expression levels. The expression levels were analyzed by measuring the intensity of the band from the gel using Image-J software.

zebrafish (ABiC) embryos [2] = assay: Zebrafish embryo developmental toxicity assay; format: in vivo, zebrafish (Danio rerio); conditions: for survival rate of embryos compared with untreated and DMSO treated embryos: 50, 100 and 150 μM, 96 hpf
[3] = tested on: Cytc protein in HT-29 cells; assay: Western blot, Cytc protein; format: cell-based, human; conditions: 100 μM, 24 h, whole-cell lysate, vs untreated cells
Method: Total protein was isolated from HT-29 cells by using lysis buffer. Cells were collected by centrifugation at 1,500 rpm for 5 min. After that, cell pellets were re-suspended with RIPA lysis buffer consisting of 1 mM protease inhibitor cocktail (PIC; Sigma-Aldrich; P8340) and lysed at […] for 1 h. After incubation, the protein was obtained by centrifugation at 13,000 × g for 15 min and kept for − 80 °C until analysis. Also, mitochondrial and cytosolic fractions were obtained by using fraction lysis buffer as described previously[50] with minor modifications. Lysed cells were kept in ice for 10 min and then cells were triturated by a 27 gauge syringe (25 strokes) to become homogeneous followed by centrifugation at 13,000 × g for 30 min. The collected supernatant was the cytosolic fraction. After the pellet was washed with lysis buffer and it was dissolved in lysis buffer for protein quantification. Protein concentration was measured by Pierce BCA protein assay kit (Thermo Scientific Laboratories, Rockford, USA) according to the manufacturer instructions. Equal amounts of proteins from all samples were separated by 10% SDS–polyacrylamide gel electrophoresis (SDS-PAGE) and electrotransferred. Polyvinylidene difluoride (PVDF) membrane was blocked with 5% skimmed milk for 1 h, followed by incubation with primary (Cytochrome-c: sc-13560; Bid: sc-11423; COX-IV: #4850; 1:2000; GAPDH: #3683; 1:10,000) and HRP-conjugated secondary (Got Anti-mouse IgG: 20102; Got anti-rabbit IgG: 20202: 1:10,000) antibodies against specific proteins. The protein signals were detected by Enhanced Chemiluminescence (ECL) detection kit (Amersham Piscataway, NJ, USA). The protein expression levels were analyzed by measuring the intensity of the band from scanned films using Image-J software. GAPDH and COX-IV served as a housekeeping protein to normalize the expression levels.

zebrafish (ABiC) embryos [4] = assay: Zebrafish embryo developmental toxicity assay; format: in vivo, zebrafish (Danio rerio); set-up: unit not given here
Method: Laboratory animal care principles were followed and experimental procedures were conducted following guidelines established by the Institutional Animal Care, and Use Committee (IACUC), and every effort was made to minimize suffering. This study was approved by the IACUC of the Kaohsiung Medical University, Kaohsiung, Taiwan (Approval No: KMU-IACUC-105213). The wild-type (ABiC strain) zebrafish (Danio rerio) were maintained at 28 °C on a 14 h/10 h light/dark cycle under standard circulating water systems and fed with hatched brine shrimp. Embryos were obtained by natural mating male fish with female fish (2:3) in a water tank and eggs were maintained in a plastic Petri dish containing ad libitum water. After 4 h incubation, embryos were randomly divided into five experimental groups (control (without treatment), sham/vehicle control (DMSO), and three treatment groups for each cyclic dipeptide. Each group had 45 embryos per test dosage. All DKPs were tested at different doses varied from 50, 100 and 200 μM, respectively. After drug treatment, embryos were maintained in an incubator at 28 °C. The survival rate and embryonic developmental changes were observed by using an inverted microscope every 24 h interval for 96 h (Nikon Eclipse TE2000-U, Tokyo, Jap).

[5] = tested on: CM-Dil labelled HT-29 xenograft in zebrafish embryos; assay: Zebrafish HT-29 xenograft antitumor assay; format: in vivo, zebrafish (Danio rerio); set-up: inhibition of tumor growth: concentration or dose not given beside the values; conditions: for inhibition of tumor growth rate: 48 hpi; for inhibition of tumor growth rate / tumor growth reduction: 200 μM; for tumor growth reduction: 72 hpi; for inhibition of tumor growth: 24 hpi
Method: For cell labelling, HT-29 cells were incubated with cell tracker CM-Dil (Invitrogen, Carlsbad, CA, USA) dye at a final volume was 20 µL/mL for 25 min at 37 °C. To remove the unstrained dye, cells were washed twice and re-suspended with 1X PBS, pH 7.4 to a final density of 2.1 × 10^6 cells/mL. Prior transplantation, CM-Dil labelled cells were assessed for viability using trypan blue exclusion assay. More than > 90% of viable cells were used. For xenotransplantation, 48-hours post-fertilization (hpf) wild-type ABiC embryos were anaesthetized in 0.01% tricaine methanesulfonate (Sigma-Aldrich; MS222) solution containing 0.3% phenylthiocarbamide (PTU; Sigma-Aldrich; P7629). After anesthetization, CM-Dil (a lipophilic fluorescent tracking dye) labelled HT-29 cells grafted into the yolk sac of each zebrafish embryos by using a microinjector IM-300 (Narishige, Tokyo, Japan). After injection, embryos were incubated for 1 h at 28 °C. For confirmation of the visible cell mass at the injection site, zebrafish were transferred to an incubator and maintained at 37 °C.
[…] CM-Dil labelled HT-29 xenograft zebrafish embryos were randomly selected and hosed into 4 replicate wells in 12-well cell culture plates (5 embryos/well; 20 embryos/treatment group; 20 × 4 = 80). The different doses (50, 100 and 200 μM) of all DKPs were treated with transplanted embryos. Before DKPs treatment, the initial fluorescence intensity of transplanted cancer cells was measured at 0 hour post-injection (hpi). At the end of experiment 24, 48, and 72 hpi, all embryos were selected from each well and were photographed under an inverted fluorescence microscope (Nikon Eclipse TE2000-U, Tokyo, Japan). The following acquisition parameters were employed over time: Image scaling: Low = 130; High = 2,900; Exposure Time = 100 ms and Binning = 1. The fluorescence intensity of the tumor in the embryos was measured and the percentage of tumor growth inhibition was calculated according to the following formula: Inhibitionrate(%)=Z(Negativecontrol)-Z(Treatment)/Z(Negativecontrol)×100%

Compound: CC(C)C[C@@H]1NC(=O)[C@@H]2CCCN2C1=O [DKP-1, cyclo (L-Pro-L-Leu)]
- Cytc gene expression up-regulation [1]: 2.32 fold
- survival rate of embryos compared with untreated and DMSO treated embryos (zebrafish (ABiC) embryos [2]): no significant decrease
- Cytc protein expression up-regulation [3]: 1.21 fold
- Mean survival rate of zebrafish embryos (zebrafish (ABiC) embryos [4]; 24 hpf, 50 μM): 70.88 ± 3.44
- Mean survival rate of zebrafish embryos (zebrafish (ABiC) embryos [4]; 24 hpf, 100 μM): 73.33 ± 5.96
- Mean survival rate of zebrafish embryos (zebrafish (ABiC) embryos [4]; 24 hpf, 200 μM): 75 ± 5.77
- Mean survival rate of zebrafish embryos (zebrafish (ABiC) embryos [4]; 48 hpf, 50 μM): 70.88 ± 5.96
- Mean survival rate of zebrafish embryos (zebrafish (ABiC) embryos [4]; 48 hpf, 100 μM): 71.11 ± 1.54
- Mean survival rate of zebrafish embryos (zebrafish (ABiC) embryos [4]; 48 hpf, 200 μM): 73.33 ± 3.32
- Mean survival rate of zebrafish embryos (zebrafish (ABiC) embryos [4]; 72 hpf, 50 μM): 71.11 ± 3.44
- Mean survival rate of zebrafish embryos (zebrafish (ABiC) embryos [4]; 72 hpf, 100 μM): 71.11 ± 5.55
- Mean survival rate of zebrafish embryos (zebrafish (ABiC) embryos [4]; 72 hpf, 200 μM): 68.88 ± 6.91
- Mean survival rate of zebrafish embryos (zebrafish (ABiC) embryos [4]; 96 hpf, 50 μM): 66.66 ± 5.96
- Mean survival rate of zebrafish embryos (zebrafish (ABiC) embryos [4]; 96 hpf, 100 μM): 71.11 ± 9.10
- Mean survival rate of zebrafish embryos (zebrafish (ABiC) embryos [4]; 96 hpf, 200 μM): 66.66 ± 5.96
- inhibition of tumor growth rate [5]: 57%
- tumor growth reduction [5]: 68%

Compound: CC(C)[C@@H]1NC(=O)[C@@H]2CCCN2C1=O [DKP-2, cyclo (L-Pro-L-Val)]
- Cytc gene expression up-regulation [1]: 1.78 fold
- survival rate of embryos compared with untreated and DMSO treated embryos (zebrafish (ABiC) embryos [2]): no significant decrease
- Mean survival rate of zebrafish embryos (zebrafish (ABiC) embryos [4]; 24 hpf, 50 μM): 77.77 ± 5.41
- Mean survival rate of zebrafish embryos (zebrafish (ABiC) embryos [4]; 24 hpf, 100 μM): 82.22 ± 4.41
- Mean survival rate of zebrafish embryos (zebrafish (ABiC) embryos [4]; 24 hpf, 200 μM): 75.55 ± 3.44
- Mean survival rate of zebrafish embryos (zebrafish (ABiC) embryos [4]; 48 hpf, 50 μM): 80 ± 5.96
- Mean survival rate of zebrafish embryos (zebrafish (ABiC) embryos [4]; 48 hpf, 100 μM): 80 ± 5.96
- Mean survival rate of zebrafish embryos (zebrafish (ABiC) embryos [4]; 48 hpf, 200 μM): 75.55 ± 3.44
- Mean survival rate of zebrafish embryos (zebrafish (ABiC) embryos [4]; 72 hpf, 50 μM): 68.88 ± 3.44
- Mean survival rate of zebrafish embryos (zebrafish (ABiC) embryos [4]; 72 hpf, 100 μM): 77.33 ± 3.44
- Mean survival rate of zebrafish embryos (zebrafish (ABiC) embryos [4]; 72 hpf, 200 μM): 71.11 ± 6.88
- Mean survival rate of zebrafish embryos (zebrafish (ABiC) embryos [4]; 96 hpf, 50 μM): 66.66 ± 5.96
- Mean survival rate of zebrafish embryos (zebrafish (ABiC) embryos [4]; 96 hpf, 100 μM): 71.11 ± 9.10
- Mean survival rate of zebrafish embryos (zebrafish (ABiC) embryos [4]; 96 hpf, 200 μM): 66.66 ± 5.96
- inhibition of tumor growth [5]: > 30%
- inhibition of tumor growth rate [5]: 58%
- tumor growth reduction [5]: 78%

Compound: O=C1N[C@@H](Cc2ccccc2)C(=O)N2CCC[C@@H]12 [DKP-3, cyclo (L-Pro-L-Phe)]
- Cytc gene expression up-regulation [1]: 4.29 fold
- survival rate of embryos compared with untreated embryos (zebrafish (ABiC) embryos [2]; lower doses (50 and 150 μM)): higher
- Cytc protein expression up-regulation [3]: 1.45 fold
- Mean survival rate of zebrafish embryos (zebrafish (ABiC) embryos [4]; 24 hpf, 50 μM): 80 ± 5.96
- Mean survival rate of zebrafish embryos (zebrafish (ABiC) embryos [4]; 24 hpf, 100 μM): 80 ± 5.96
- Mean survival rate of zebrafish embryos (zebrafish (ABiC) embryos [4]; 24 hpf, 200 μM): 75.55 ± 4.12
- Mean survival rate of zebrafish embryos (zebrafish (ABiC) embryos [4]; 48 hpf, 50 μM): 80 ± 5.96
- Mean survival rate of zebrafish embryos (zebrafish (ABiC) embryos [4]; 48 hpf, 100 μM): 80 ± 5.96
- Mean survival rate of zebrafish embryos (zebrafish (ABiC) embryos [4]; 48 hpf, 200 μM): 75.55 ± 4.12
- Mean survival rate of zebrafish embryos (zebrafish (ABiC) embryos [4]; 72 hpf, 50 μM): 77.77 ± 9.10
- Mean survival rate of zebrafish embryos (zebrafish (ABiC) embryos [4]; 72 hpf, 100 μM): 80 ± 5.96
- Mean survival rate of zebrafish embryos (zebrafish (ABiC) embryos [4]; 72 hpf, 200 μM): 73.33 ± 5.96
- Mean survival rate of zebrafish embryos (zebrafish (ABiC) embryos [4]; 96 hpf, 50 μM): 68.88 ± 6.88
- Mean survival rate of zebrafish embryos (zebrafish (ABiC) embryos [4]; 96 hpf, 100 μM): 80 ± 5.96
- Mean survival rate of zebrafish embryos (zebrafish (ABiC) embryos [4]; 96 hpf, 200 μM): 69.22 ± 12
- inhibition of tumor growth [5]: > 30%
- inhibition of tumor growth rate [5]: 68%
- tumor growth reduction [5]: 81%
- tumor growth inhibition rates compared to other peptides ([5]; all time intervals, different doses): highest tumor growth inhibition rates

Compound: O=C1N[C@@H](Cc2ccc(O)cc2)C(=O)N2CCC[C@@H]12 [DKP-4, cyclo (L-Pro-L-Tyr)]
- Cytc gene expression up-regulation [1]: 3.62 fold
- survival rate of embryos compared with untreated and DMSO treated embryos (zebrafish (ABiC) embryos [2]): no significant decrease
- Cytc protein expression up-regulation [3]: 1.85 fold
- Mean survival rate of zebrafish embryos (zebrafish (ABiC) embryos [4]; 24 hpf, 50 μM): 79 ± 3.96
- Mean survival rate of zebrafish embryos (zebrafish (ABiC) embryos [4]; 24 hpf, 100 μM): 82 ± 2.96
- Mean survival rate of zebrafish embryos (zebrafish (ABiC) embryos [4]; 24 hpf, 200 μM): 71.55 ± 5.12
- Mean survival rate of zebrafish embryos (zebrafish (ABiC) embryos [4]; 48 hpf, 50 μM): 79 ± 3.96
- Mean survival rate of zebrafish embryos (zebrafish (ABiC) embryos [4]; 48 hpf, 100 μM): 81 ± 2.96
- Mean survival rate of zebrafish embryos (zebrafish (ABiC) embryos [4]; 48 hpf, 200 μM): 70.34 ± 3.33
- Mean survival rate of zebrafish embryos (zebrafish (ABiC) embryos [4]; 72 hpf, 50 μM): 75.51 ± 3.32
- Mean survival rate of zebrafish embryos (zebrafish (ABiC) embryos [4]; 72 hpf, 200 μM): 70.54 ± 3.51
- Mean survival rate of zebrafish embryos (zebrafish (ABiC) embryos [4]; 96 hpf, 50 μM): 71.11 ± 2.44
- Mean survival rate of zebrafish embryos (zebrafish (ABiC) embryos [4]; 96 hpf, 100 μM): 79.3 ± 2.77
- Mean survival rate of zebrafish embryos (zebrafish (ABiC) embryos [4]; 96 hpf, 200 μM): 68.24 ± 5.89
- inhibition of tumor growth [5]: > 30%
- inhibition of tumor growth rate [5]: 60%
- tumor growth reduction [5]: 74%
